According to the kinase profiling compilation of Christmann-Franck et al. (2016):

Key:
Experiment in all cases: radiometric filter-binding kinase assay, Kinase HotSpot
Conditions in all cases: compound 0.5 µM; ATP 10 µM
MAP2K2 (human) = MAP2K2 (human) (UniProt P36507)
PNCK (human) = PNCK (human) (UniProt Q6P2M8)
STK11 (human) = STK11 (human) (UniProt Q15831)
MAP3K14 (human) = MAP3K14 (human) (UniProt Q99558)
CSNK1G3 (human) = CSNK1G3 (human) (UniProt Q9Y6M4)
CSF1R (human) = CSF1R (human) (UniProt P07333)
ULK2 (human) = ULK2 (human) (UniProt Q8IYT8)
MST1R (human) = MST1R (human) (UniProt Q04912)
TGFBR1 (human) = TGFBR1 (human) (UniProt P36897)
DSTYK (human) = DSTYK (human) (UniProt Q6XUX3)
ZAP70 (human) = ZAP70 (human) (UniProt P43403)
ZAP70 (human), sequence (P43403 whole entry, looked up): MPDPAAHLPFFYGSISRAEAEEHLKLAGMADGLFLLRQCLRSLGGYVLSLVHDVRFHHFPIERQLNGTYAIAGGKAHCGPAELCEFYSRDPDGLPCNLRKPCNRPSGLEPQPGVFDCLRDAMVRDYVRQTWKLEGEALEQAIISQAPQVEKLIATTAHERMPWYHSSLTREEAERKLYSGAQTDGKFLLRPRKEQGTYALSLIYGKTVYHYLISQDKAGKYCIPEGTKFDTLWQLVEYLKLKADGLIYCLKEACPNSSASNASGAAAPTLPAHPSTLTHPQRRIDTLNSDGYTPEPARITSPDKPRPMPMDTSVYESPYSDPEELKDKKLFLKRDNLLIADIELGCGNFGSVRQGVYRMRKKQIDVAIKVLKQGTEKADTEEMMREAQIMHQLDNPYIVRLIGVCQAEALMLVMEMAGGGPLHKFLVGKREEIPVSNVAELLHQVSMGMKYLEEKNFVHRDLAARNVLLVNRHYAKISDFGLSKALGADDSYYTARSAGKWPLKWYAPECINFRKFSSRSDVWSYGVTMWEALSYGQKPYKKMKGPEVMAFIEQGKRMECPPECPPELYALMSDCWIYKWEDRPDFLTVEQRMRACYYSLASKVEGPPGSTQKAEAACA

NEK7 (human) = NEK7 (human) (UniProt Q8TDX7)
DYRK4 (human) = DYRK4 (human) (UniProt Q9NR20)
TAOK2 (human) = TAOK2 (human) (UniProt Q9UL54)
TAOK2 (human), sequence (Q9UL54 whole entry, looked up): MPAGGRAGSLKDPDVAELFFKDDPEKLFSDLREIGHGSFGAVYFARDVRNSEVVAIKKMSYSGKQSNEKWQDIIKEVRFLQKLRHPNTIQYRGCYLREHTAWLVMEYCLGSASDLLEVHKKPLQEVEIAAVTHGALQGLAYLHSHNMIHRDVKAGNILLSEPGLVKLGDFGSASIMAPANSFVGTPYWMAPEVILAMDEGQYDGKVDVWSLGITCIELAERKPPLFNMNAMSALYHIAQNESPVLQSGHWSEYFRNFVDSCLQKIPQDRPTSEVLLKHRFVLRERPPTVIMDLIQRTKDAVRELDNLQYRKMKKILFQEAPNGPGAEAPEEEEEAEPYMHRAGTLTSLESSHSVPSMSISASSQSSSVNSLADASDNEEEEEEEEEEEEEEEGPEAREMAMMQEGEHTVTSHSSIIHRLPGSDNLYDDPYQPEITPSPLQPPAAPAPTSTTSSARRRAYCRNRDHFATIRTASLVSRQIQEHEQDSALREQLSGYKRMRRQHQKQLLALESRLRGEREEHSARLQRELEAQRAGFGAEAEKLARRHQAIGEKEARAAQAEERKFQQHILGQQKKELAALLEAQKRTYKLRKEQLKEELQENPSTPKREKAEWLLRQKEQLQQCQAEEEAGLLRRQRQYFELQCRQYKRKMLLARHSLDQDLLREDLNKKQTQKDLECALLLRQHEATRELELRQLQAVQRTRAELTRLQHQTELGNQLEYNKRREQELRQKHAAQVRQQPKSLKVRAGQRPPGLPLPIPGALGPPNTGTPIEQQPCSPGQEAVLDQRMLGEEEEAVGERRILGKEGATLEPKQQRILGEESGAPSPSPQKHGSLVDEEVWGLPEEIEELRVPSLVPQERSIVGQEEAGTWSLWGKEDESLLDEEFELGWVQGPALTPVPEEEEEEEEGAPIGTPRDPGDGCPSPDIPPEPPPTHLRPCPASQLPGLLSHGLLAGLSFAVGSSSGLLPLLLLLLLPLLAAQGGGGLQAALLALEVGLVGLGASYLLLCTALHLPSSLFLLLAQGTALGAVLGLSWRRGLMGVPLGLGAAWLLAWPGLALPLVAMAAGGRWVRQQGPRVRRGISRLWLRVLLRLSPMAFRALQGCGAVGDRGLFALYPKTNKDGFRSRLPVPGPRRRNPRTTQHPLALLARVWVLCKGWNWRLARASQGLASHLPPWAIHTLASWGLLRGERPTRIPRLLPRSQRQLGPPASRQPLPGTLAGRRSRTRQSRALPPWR

PAK4 (human) = PAK4 (human) (UniProt O96013)
MAP3K8 (human) = MAP3K8 (human) (UniProt P41279)
EPHB2 (human) = EPHB2 (human) (UniProt P29323)
EPHB2 (human), sequence (P29323 whole entry, looked up): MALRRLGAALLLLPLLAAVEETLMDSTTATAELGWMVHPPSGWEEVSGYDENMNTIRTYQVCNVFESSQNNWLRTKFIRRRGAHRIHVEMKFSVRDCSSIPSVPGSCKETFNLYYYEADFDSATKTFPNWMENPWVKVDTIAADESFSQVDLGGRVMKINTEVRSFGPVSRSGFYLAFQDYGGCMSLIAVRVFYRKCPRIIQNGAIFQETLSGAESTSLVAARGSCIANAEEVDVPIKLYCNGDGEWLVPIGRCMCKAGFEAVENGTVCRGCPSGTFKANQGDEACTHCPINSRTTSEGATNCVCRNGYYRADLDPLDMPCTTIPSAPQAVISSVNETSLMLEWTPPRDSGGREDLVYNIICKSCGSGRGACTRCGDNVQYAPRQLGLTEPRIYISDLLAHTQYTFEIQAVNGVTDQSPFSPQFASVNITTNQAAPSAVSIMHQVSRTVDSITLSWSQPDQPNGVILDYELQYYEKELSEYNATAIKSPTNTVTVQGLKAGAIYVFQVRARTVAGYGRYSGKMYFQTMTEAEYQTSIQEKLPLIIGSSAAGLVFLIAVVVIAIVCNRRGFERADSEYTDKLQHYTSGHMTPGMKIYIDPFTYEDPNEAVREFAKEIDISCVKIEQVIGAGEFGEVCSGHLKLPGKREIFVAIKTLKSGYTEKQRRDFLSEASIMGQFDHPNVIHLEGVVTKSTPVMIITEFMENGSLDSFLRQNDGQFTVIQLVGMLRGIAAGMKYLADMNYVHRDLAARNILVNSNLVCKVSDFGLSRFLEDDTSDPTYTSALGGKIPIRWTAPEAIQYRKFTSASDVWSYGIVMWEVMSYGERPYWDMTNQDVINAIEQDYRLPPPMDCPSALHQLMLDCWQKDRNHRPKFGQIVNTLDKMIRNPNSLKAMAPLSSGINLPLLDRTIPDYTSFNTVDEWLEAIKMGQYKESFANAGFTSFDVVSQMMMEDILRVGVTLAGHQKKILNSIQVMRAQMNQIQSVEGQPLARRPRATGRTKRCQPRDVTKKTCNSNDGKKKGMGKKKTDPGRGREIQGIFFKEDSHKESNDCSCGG

ROCK1 (human) = ROCK1 (human) (UniProt Q13464)
HIPK2 (human) = HIPK2 (human) (UniProt Q9H2X6)
JAK3 JH1 JH2 (human) = JAK3 JH1 JH2 (human) (UniProt P52333)
MST4 (human) = MST4 (human) (UniProt Q9P289)
FER (human) = FER (human) (UniProt P16591)
LTK (human) = LTK (human) (UniProt P29376)
KDR (human) = KDR (human) (UniProt P35968)
TEK (human) = TEK (human) (UniProt Q02763)
PRKX (human) = PRKX (human) (UniProt P51817)
PRKX (human), sequence (P51817 whole entry, looked up): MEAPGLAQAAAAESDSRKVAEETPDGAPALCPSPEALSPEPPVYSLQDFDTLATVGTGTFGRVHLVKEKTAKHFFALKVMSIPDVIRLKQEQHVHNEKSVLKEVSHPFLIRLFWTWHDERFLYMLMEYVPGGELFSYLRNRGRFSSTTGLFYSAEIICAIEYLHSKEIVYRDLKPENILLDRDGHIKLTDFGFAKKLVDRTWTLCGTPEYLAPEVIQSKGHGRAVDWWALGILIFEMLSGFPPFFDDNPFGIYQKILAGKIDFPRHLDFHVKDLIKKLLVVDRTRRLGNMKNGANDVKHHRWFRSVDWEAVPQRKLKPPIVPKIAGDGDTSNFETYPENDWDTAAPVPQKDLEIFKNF

RPS6KB2 (human) = RPS6KB2 (human) (UniProt Q9UBS0)
ERBB4 (human) = ERBB4 (human) (UniProt Q15303)
MAPK9 (human) = MAPK9 (human) (UniProt P45984)
MAPK9 (human), sequence (P45984 whole entry, looked up): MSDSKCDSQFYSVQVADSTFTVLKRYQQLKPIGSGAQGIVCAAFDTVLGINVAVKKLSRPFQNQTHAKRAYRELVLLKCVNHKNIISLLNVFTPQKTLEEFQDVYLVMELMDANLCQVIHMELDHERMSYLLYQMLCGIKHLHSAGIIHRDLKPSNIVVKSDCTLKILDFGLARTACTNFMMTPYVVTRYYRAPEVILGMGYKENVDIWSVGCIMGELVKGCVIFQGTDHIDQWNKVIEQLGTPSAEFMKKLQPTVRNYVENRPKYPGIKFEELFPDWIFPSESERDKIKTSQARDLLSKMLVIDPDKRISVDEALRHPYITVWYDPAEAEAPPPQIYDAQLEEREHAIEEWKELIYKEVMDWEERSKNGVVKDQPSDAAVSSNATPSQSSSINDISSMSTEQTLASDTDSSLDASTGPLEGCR

CLK4 (human) = CLK4 (human) (UniProt Q9HAZ1)
CLK2 (human) = CLK2 (human) (UniProt P49760)
CLK3 (human) = CLK3 (human) (UniProt P49761)
PHKG2 (human) = PHKG2 (human) (UniProt P15735)
RAF1 (human) = RAF1 (human) (UniProt P04049)
ALK (human) = ALK (human) (UniProt Q9UM73)
IRAK4 (human) = IRAK4 (human) (UniProt Q9NWZ3)
PAK6 (human) = PAK6 (human) (UniProt Q9NQU5)
MARK4 (human) = MARK4 (human) (UniProt Q96L34)
CDK5 CDK5R1 p25 (human) = CDK5 CDK5R1 p25 (human) (UniProt Q00535+Q15078)
MAPK10 (human) = MAPK10 (human) (UniProt P53779)
MAPK10 (human), sequence (P53779 whole entry, looked up): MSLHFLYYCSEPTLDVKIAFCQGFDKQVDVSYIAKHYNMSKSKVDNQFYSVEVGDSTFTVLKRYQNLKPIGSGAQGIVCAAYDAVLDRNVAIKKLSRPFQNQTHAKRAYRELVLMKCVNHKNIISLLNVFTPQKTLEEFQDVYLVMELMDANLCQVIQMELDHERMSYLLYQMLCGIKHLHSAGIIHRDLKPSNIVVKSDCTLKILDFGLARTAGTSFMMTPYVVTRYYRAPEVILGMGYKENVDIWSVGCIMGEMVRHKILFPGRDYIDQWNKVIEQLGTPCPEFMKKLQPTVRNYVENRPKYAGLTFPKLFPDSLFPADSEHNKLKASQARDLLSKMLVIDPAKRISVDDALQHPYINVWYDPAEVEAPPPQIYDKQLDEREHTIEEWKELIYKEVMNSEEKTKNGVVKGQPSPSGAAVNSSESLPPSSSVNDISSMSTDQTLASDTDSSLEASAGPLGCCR

CAMK1 (human) = CAMK1 (human) (UniProt Q14012)
CAMK1 (human), sequence (Q14012 whole entry, looked up): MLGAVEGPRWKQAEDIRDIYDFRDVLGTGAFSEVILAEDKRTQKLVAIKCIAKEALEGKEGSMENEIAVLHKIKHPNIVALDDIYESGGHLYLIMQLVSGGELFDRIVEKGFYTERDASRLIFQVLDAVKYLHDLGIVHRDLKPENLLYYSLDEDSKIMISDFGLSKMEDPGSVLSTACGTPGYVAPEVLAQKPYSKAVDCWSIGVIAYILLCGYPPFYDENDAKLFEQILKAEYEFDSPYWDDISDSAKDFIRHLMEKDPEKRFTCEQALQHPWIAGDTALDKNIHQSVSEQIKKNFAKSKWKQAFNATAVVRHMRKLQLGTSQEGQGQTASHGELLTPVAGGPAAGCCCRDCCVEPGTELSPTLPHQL

NUAK1 (human) = NUAK1 (human) (UniProt O60285)

PNCK (human), sequence (Q6P2M8 whole entry, looked up): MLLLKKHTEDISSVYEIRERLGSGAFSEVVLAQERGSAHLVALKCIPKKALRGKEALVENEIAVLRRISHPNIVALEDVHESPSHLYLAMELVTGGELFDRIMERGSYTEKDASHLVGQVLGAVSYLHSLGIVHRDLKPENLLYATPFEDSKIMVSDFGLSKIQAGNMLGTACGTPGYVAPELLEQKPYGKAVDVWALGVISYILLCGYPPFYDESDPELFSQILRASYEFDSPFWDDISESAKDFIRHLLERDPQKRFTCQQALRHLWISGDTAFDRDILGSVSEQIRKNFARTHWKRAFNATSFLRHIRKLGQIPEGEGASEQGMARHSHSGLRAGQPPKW

Question: `COc1cc2ncnc(N3CCN(C(=O)Nc4ccc(Oc5ccccc5)cc4)CC3)c2cc1OC` was tested. Which residual activity (MAP2K2 (human)) did it give?
Answer: Its residual activity is 99.3%.

Question: What about the residual activity (PNCK (human)) of the same compound?
Answer: The residual activity was 94.3%.

Question: And the residual activity (STK11 (human))?
Answer: The residual activity was 105%.

Question: And the residual activity (MAP3K14 (human))?
Answer: The residual activity was 105%.

Question: What about the residual activity (CSNK1G3 (human)) of the same compound?
Answer: The residual activity was 82.7%.

Question: What about the residual activity (CSF1R (human)) of the same compound?
Answer: The residual activity was 67.2%.

Question: And the residual activity (ULK2 (human))?
Answer: The residual activity was 102%.

Question: And the residual activity (MST1R (human))?
Answer: Its residual activity is 90.3%.

Question: What about the residual activity (TGFBR1 (human)) of the same compound?
Answer: The residual activity was 99.5%.

Question: And the residual activity (DSTYK (human))?
Answer: Its residual activity is 113%.

Question: And the residual activity (ZAP70 (human))?
Answer: Its residual activity is 100%.

Question: And the residual activity (NEK7 (human))?
Answer: Its residual activity is 105%.

Question: And the residual activity (DYRK4 (human))?
Answer: Its residual activity is 79.8%.

Question: And the residual activity (TAOK2 (human))?
Answer: Its residual activity is 96.3%.

Question: And the residual activity (PAK4 (human))?
Answer: Its residual activity is 101%.

Question: And the residual activity (MAP3K8 (human))?
Answer: Its residual activity is 95.1%.

Question: What about the residual activity (EPHB2 (human)) of the same compound?
Answer: The residual activity was 98.2%.

Question: And the residual activity (ROCK1 (human))?
Answer: Its residual activity is 86%.

Question: And the residual activity (HIPK2 (human))?
Answer: The residual activity was 82.8%.

Question: What about the residual activity (JAK3 JH1 JH2 (human)) of the same compound?
Answer: The residual activity was 107%.

Question: What about the residual activity (MST4 (human)) of the same compound?
Answer: The residual activity was 95.4%.

Question: And the residual activity (FER (human))?
Answer: Its residual activity is 99.8%.

Question: And the residual activity (LTK (human))?
Answer: The residual activity was 89.8%.

Question: And the residual activity (KDR (human))?
Answer: The residual activity was 82.7%.

Question: What about the residual activity (TEK (human)) of the same compound?
Answer: The residual activity was 92.6%.

Question: And the residual activity (PRKX (human))?
Answer: The residual activity was 99.3%.

Question: What about the residual activity (RPS6KB2 (human)) of the same compound?
Answer: Its residual activity is 92.4%.

Question: And the residual activity (ERBB4 (human))?
Answer: Its residual activity is 101%.

Question: And the residual activity (MAPK9 (human))?
Answer: Its residual activity is 88.4%.

Question: What about the residual activity (CLK4 (human)) of the same compound?
Answer: Its residual activity is 65.6%.

Question: What about the residual activity (CLK2 (human)) of the same compound?
Answer: The residual activity was 81.3%.

Question: And the residual activity (CLK3 (human))?
Answer: Its residual activity is 88.9%.

Question: What about the residual activity (PHKG2 (human)) of the same compound?
Answer: The residual activity was 128%.

Question: And the residual activity (RAF1 (human))?
Answer: The residual activity was 88%.

Question: What about the residual activity (ALK (human)) of the same compound?
Answer: The residual activity was 101%.

Question: What about the residual activity (IRAK4 (human)) of the same compound?
Answer: Its residual activity is 83.5%.

Question: What about the residual activity (PAK6 (human)) of the same compound?
Answer: Its residual activity is 95.2%.

Question: And the residual activity (MARK4 (human))?
Answer: The residual activity was 76.5%.

Question: What about the residual activity (CDK5 CDK5R1 p25 (human)) of the same compound?
Answer: The residual activity was 77.1%.

Question: What about the residual activity (MAPK10 (human)) of the same compound?
Answer: Its residual activity is 98.2%.

Question: And the residual activity (CAMK1 (human))?
Answer: Its residual activity is 96.9%.

Question: And the residual activity (NUAK1 (human))?
Answer: Its residual activity is 88.8%.
